The values below come from ChEMBL document CHEMBL3797112, “Flavonoid profile and antileukemic activity of Coreopsis lanceolata flowers” (Bioorg Med Chem Lett, 2016).

The subject of data set [1] is HL-60. As to the kind of experiment: (§1) Antiproliferative activity against human HL60 cells assessed as cell survival at 25 uM incubated for 48 hrs by CCK8 assay. In kind it is functional. A general note: Formazan colour is commonly taken as a measure of viable cells.
The nature of data set [2]: Retention time of the compound by UPLC-ESI-MS method. In kind it is physicochemical.
A short description of data set [3]: as §1. In kind it is functional. The note with it: HL-60, 48 h, read-out: Survival.
The subject of data set [4] is HL-60. As to the kind of experiment: Induction of apoptosis in human HL60 cells at 25 uM incubated for 48 hrs by Giemsa staining assay. The class given is functional, cell-based.
The subject of data set [5] is HL-60. The data set is described as follows: Induction of apoptosis in human HL60 cells assessed as induction of morphological changes at 25 uM incubated for 48 hrs by Hoechst-33342 staining assay. The class given is functional, cell-based.

The source made the active and inactive calls. No cut-off for these calls is given here.

Take `COc1c(O)ccc(C(=O)/C=C/c2ccc(O)c(O)c2)c1O`: in data set [1], the result was inactive. In data set [2], this compound returned a Retention_time of 30.97 min.

Regarding `O=C(/C=C/c1ccc(O)c(O)c1)c1ccc(O)c(O)c1O`, in data set [1], the result was inactive. This compound also displayed a Retention_time in data set [2] of 20.14 min.

On to `CC(=O)O[C@H]1C(=O)[C@@]2(C)[C@H]([C@H](OC(=O)c3ccccc3)[C@]3(O)C[C@H](OC(=O)[C@H](O)[C@@H](NC(=O)c4ccccc4)c4ccccc4)C(C)=C1C3(C)C)[C@]1(OC(C)=O)CO[C@@H]1C[C@@H]2O` [PACLITAXEL], for which the viability at 25 µM in data set [3] is 18.9%.

With `COc1c(O)ccc2c1O/C(=C\c1ccc(O)c(O)c1)C2=O`, in data set [1], the result was inactive. The same compound yielded a Retention_time in data set [2] of 25.04 min.

For `COc1ccc(/C=C/C(=O)c2ccc(O)c(OC)c2O)cc1O`, in data set [3], the viability at 25 µM worked out at 23.8%. Besides, the outcome in data set [4] and in data set [5] was Active. In data set [2], this compound had a Retention_time of 41.24 min.

As for `COc1c(O)ccc2c1O[C@H](c1ccc(O)c(O)c1)CC2=O`, in data set [1], the result was inactive. The compound also gave a Retention_time in data set [2] of 18.52 min.

Take `COc1c(O[C@@H]2O[C@H](CO)[C@@H](O)[C@H](O)[C@H]2O)ccc2c1O/C(=C\c1ccc(O)c(O)c1)C2=O`: the result in data set [1] was inactive. For the same compound, the Retention_time in data set [2] is 16.07 min.
